# In PubChem BioAssay (NCI):
# “And” between values parts separate entries of the source, which are not always exact repeats. Equal entries are not always repeated.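 Five compound concentrations were applied to cells in 96-well plates for 48 hours; endpoints were derived by simple linear interpolation of the resulting dose-response curve. GI50: concentration for 50% inhibition of growth. The concentration for full growth arrest is given as TGI.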
# Assays:
# Experiment in all cases: NCI anticancer screen, dose series, 48 h
# [1] = system: CAKI-1 renal
# [2] = system: HOP-92 NSCLC
# [3] = system: RPMI-8226 leukemia
# [4] = system: EKVX NSCLC
# [5] = system: NCI-H23 lung
# [6] = system: SW-620 colon
# [7] = system: MCF7 breast
# [8] = system: 786-0 renal
# [9] = system: NCI/ADR-RES ovarian
# [10] = system: UACC-257 melanoma
Structure (SMILES),GI50 [1],TGI [1],GI50 [2],TGI [2],GI50 [3],TGI [3],GI50 [4],TGI [4],GI50 [5],TGI [5],GI50 [6],TGI [6],GI50 [7],TGI [7],GI50 [8],TGI [8],GI50 [9],TGI [9],GI50 [10],TGI [10]
CCN(CC)CCCC(C)Nc1cc(-c2cccc(OC(F)(F)F)c2)nc2ccc(N3CCCC3)cc12 (centres undefined),0.0422 µM,31.5 µM,0.582 µM,13.4 µM,0.0788 µM,13.1 µM,0.069 µM,> 100 µM,0.161 µM,> 64 µM,0.0433 µM,> 100 µM,0.0353 µM,22.5 µM,0.158 µM,26.1 µM,0.0453 µM,6.27 µM,0.97 µM,47.7 µM
COC(=O)Nc1nc2ccccc2[nH]1,–,> 100 µM,–,> 100 µM,–,> 100 µM,–,> 100 µM,–,> 56.2 µM,–,> 100 µM,–,> 100 µM,–,> 100 µM,–,21 µM,–,> 100 µM
O=C(NNc1ccc(Cl)cc1)C1CCC(CNS(=O)(=O)c2ccccc2Cl)CC1 (centres undefined),2.9 µM,12.6 µM,17.3 µM,> 100 µM,4.91 µM,21.9 µM,11 µM,56.2 µM,15 µM,50.6 µM,40.6 µM,> 100 µM,4.88 µM,> 100 µM,13.7 µM,34 µM,15.5 µM,50.7 µM,17.1 µM,59.7 µM
CC(C)OC(=S)Nc1ccc(Cl)c(/C=N/OC(C)(C)C)c1,–,32.8 µM,–,25.5 µM,–,51.3 µM,–,36.3 µM,–,39.4 µM,–,32 µM,–,51 µM,–,34.3 µM,–,16.8 µM,–,37.4 µM
O=C1/C(=C/c2ccc(F)cc2)CN(C(=O)CCN2CCC(=NO)CC2)C/C1=C\c1ccc(F)cc1,1.57 µM,3.92 µM,3.21 µM,7.39 µM,0.707 µM,2.13 µM,2.19 µM,5.9 µM,1.92 µM,4.47 µM,0.375 µM,1.07 µM,0.768 µM,4.59 µM,1.48 µM,3.45 µM,1.9 µM,23.4 µM,2.4 µM,7.05 µM
O=C(Nc1ccccc1I(=O)=O)C1CCCCC1,> 100 µM,> 100 µM,> 100 µM,> 100 µM,> 100 µM,> 100 µM,> 100 µM,> 100 µM,> 100 µM,> 100 µM,> 100 µM,> 100 µM,> 100 µM,> 100 µM,> 100 µM,> 100 µM,> 100 µM,> 100 µM,> 100 µM,> 100 µM
C#Cc1cccc(Nc2nc(Cl)nc3cc(NC(=O)CCl)ccc23)c1,1.85 µM,5.17 µM,1.23 µM,2.86 µM,0.895 µM,4.61 µM,2.12 µM,6.27 µM,0.962 µM,3.77 µM,0.51 µM,1.21 µM,0.61 µM,3.12 µM,0.449 µM,0.949 µM,1.28 µM,13.6 µM,2.36 µM,5.82 µM
O=C(NCCCc1cn[nH]c1)c1ccc(-c2ccncc2)c(C#Cc2ccc(F)cc2)c1,6.92 µM,> 100 µM,12.7 µM,87 µM,< 0.0113 µM,9.54 µM,8.39 µM,> 100 µM,14.5 µM,> 100 µM,< 0.01 µM,> 100 µM,1.9 µM,> 70.2 µM,3.66 µM,> 64.1 µM,< 0.0116 µM,> 100 µM,17.6 µM,> 100 µM
Cc1ccc([N+](=O)[O-])c2c(NCCNC(=O)c3cc(C(=O)NCCNc4ccnc5c(C)ccc([N+](=O)[O-])c45)n(C)n3)ccnc12,–,> 100 µM,–,> 100 µM,–,78.3 µM,–,> 100 µM,–,> 100 µM,–,53.4 µM,–,> 21.5 µM,–,98.2 µM,–,> 100 µM,–,> 100 µM
O=C(O)/C(Cc1ccnc2ccccc12)=N\O,–,> 100 µM,–,> 100 µM,–,> 100 µM,–,> 100 µM,–,> 100 µM,–,> 100 µM,–,> 100 µM,–,> 100 µM,–,> 100 µM,–,> 100 µM
O=C(O)/C(Cc1cn[nH]n1)=N\O,–,> 100 µM,–,> 100 µM,–,> 100 µM,–,> 100 µM,–,> 100 µM,–,> 100 µM,–,> 100 µM,–,> 100 µM,–,> 100 µM,–,> 100 µM
COc1ccc(C(=O)c2cc(C)c(OC)c(C)c2)c(OC)c1NC(C)=O,0.0639 µM,> 100 µM,1.02 µM,> 100 µM,0.785 µM,> 100 µM,0.251 µM,> 100 µM,0.369 µM,> 100 µM,0.19 µM,> 100 µM,0.491 µM,> 100 µM,0.0562 µM,> 100 µM,0.131 µM,0.573 µM,> 100 µM,> 100 µM
CNCCCNc1nc2ccccc2c2c(=O)c3cc(OC)ccc3sc12,1.66 µM,3.17 µM,1.35 µM,5.67 µM,2.22 µM,5.16 µM,1.72 µM,3.7 µM,1.7 µM,3.19 µM,1.72 µM,3.28 µM,1.69 µM,3.32 µM,1.66 µM,3.17 µM,1.82 µM,3.64 µM,1.99 µM,4.15 µM
COc1ccc(-c2cc3c(C)nc(N)nc3n(C3CCC(OCCO)CC3)c2=O)cn1 (centres undefined),0.0379 µM and 0.0866 µM,0.38 µM and 0.575 µM,0.0362 µM,–,0.157 µM and 0.0612 µM,> 3.74 µM and 3.27 µM,0.0971 µM and 0.0465 µM,0.7 µM and 0.396 µM,0.156 µM and 0.0977 µM,> 6.91 µM,0.181 µM and 0.162 µM,> 10 µM,0.0266 µM and 0.0228 µM,> 10 µM and 1.03 µM,0.0694 µM and 0.0605 µM,0.614 µM and 0.442 µM,0.141 µM and 0.139 µM,2.06 µM and 1.65 µM,0.0586 µM and 0.0423 µM,0.414 µM and 0.336 µM
Nc1nc2c(C(=O)NCc3cccs3)nnn2c2cccc(Cl)c12,–,> 100 µM,–,> 100 µM,–,> 100 µM,–,> 100 µM,–,> 100 µM,–,> 100 µM,–,> 100 µM,–,> 100 µM,–,> 100 µM,–,> 100 µM
CN1Cc2ccccc2/C=C\c2ccccc21,–,> 100 µM,–,98.7 µM,–,68.7 µM,–,92.7 µM,–,> 100 µM,–,> 100 µM,–,67.9 µM,–,> 100 µM,–,> 100 µM,–,> 100 µM
CN=C1C=CC(=C(c2ccc(N(C)C)cc2)c2ccc(N(C)C)cc2)C=C1,0.448 µM,2.53 µM,0.205 µM,0.633 µM,0.0543 µM,0.255 µM,0.237 µM,2.62 µM,0.224 µM,1.02 µM,0.185 µM,1.35 µM,0.308 µM,1.05 µM,0.292 µM,1.18 µM,1.5 µM,4.83 µM,0.249 µM,0.797 µM
Cc1c(C#N)cccc1[C@@H](C)Nc1nnc(C)c2cnc(N3CCOCC3)cc12,0.7 µM,> 100 µM,0.175 µM,13.1 µM,25.8 µM,> 100 µM,18.3 µM,> 100 µM,15.3 µM,> 100 µM,18.9 µM,> 100 µM,21.4 µM,72.4 µM,13.7 µM,> 100 µM,35.5 µM,> 100 µM,26.4 µM,94.5 µM
C1CN(c2nnc(N3CCC3)nn2)C1,–,> 100 µM,–,> 100 µM,–,> 100 µM,–,> 100 µM,–,79.7 µM,–,59 µM,–,> 72.2 µM,–,49.5 µM,–,> 100 µM,–,49.4 µM
C=C1C(O)C2CC(C)(CO)C(=O)C2=C(CC(C)C)C12CC2 (centres undefined),69.6 µM,> 100 µM,94.6 µM,> 100 µM,29.1 µM,> 100 µM,69.5 µM,> 100 µM,> 100 µM,> 100 µM,62.3 µM,> 100 µM,63.9 µM,> 100 µM,> 100 µM,> 100 µM,> 100 µM,> 100 µM,52.1 µM,> 100 µM
CC(=O)N1CCN(CCNC(=O)n2cc(-c3ccncc3)c(-c3cc(O)cc(Cl)c3)n2)CC1,13 µM,38.1 µM,5.93 µM,24.3 µM,4.69 µM,23.4 µM,24.6 µM,> 100 µM,17.1 µM,46 µM,10.9 µM,26.9 µM,14.7 µM,32.9 µM,10.2 µM,23.3 µM,22.1 µM,> 100 µM,1.85 µM,4.61 µM
